Results on 42 compounds are retold here after the PolyMetriX glass transition set.

`*/C=C/c1ccc(N(C)CCOC(=O)Nc2ccc(C)c(NC(=O)OCCN(C)c3ccc(/C=C/C4=CC(=C(C#N)C#N)C=C(*)O4)s3)c2)s1` (repeat unit) showed a glass transition temperature of 183.00 °C.
Regarding `*CC1CCC(CNC(=O)c2cccc(C(=O)N*)c2)CC1` (repeat unit), the glass transition temperature stood at 208.00 °C.
Take `*CCCC1(CCCNC(=O)c2cccc(C(=O)N*)c2)c2ccccc2-c2ccccc21` (repeat unit): the glass transition temperature was determined as 175.00 °C.
For `*CCCC1(CCCNC(=O)c2ccccc2-c2ccccc2C(=O)N*)c2ccccc2-c2ccccc21` (repeat unit) the value was 165.00 °C; for `*CCCCCCCCCCCCCCCCCCNC(=O)NCc1ccc(CNC(=O)N*)cc1` (repeat unit), 52.00 °C; for `*CCCCCCCCCCCCNC(=O)NCCCCCCNC(=O)N*` (repeat unit), 49.00 °C.
With `*CCCCCCCCCCCCNC(=O)c1ccc(C(=O)N*)c(Sc2ccccc2)c1` (repeat unit), the glass transition temperature was 92.00 °C.
For `*CCCCCCCCCCCCOC(=O)NCCCCCCCCCCNC(=O)O*` (repeat unit) the value was 34.00 °C.
`*CCCCCCCCCCNC(=O)c1ccc(C(=O)N*)c(Sc2ccccc2)c1` (repeat unit) came in with a glass transition temperature of 100.00 °C.
The compound `*CCCCCCCCNC(=O)c1ccc(C(=O)N*)c(Oc2ccccc2)c1` (repeat unit) registered a glass transition temperature of 96.00 °C.
The same measure for `*CCCCCCNC(=O)NCc1ccc(CNC(=O)N*)cc1` (repeat unit): 72.00 °C; for `*CCCCCOC(=O)NCC(F)(F)C(F)(F)C(F)(F)C(F)(F)CNC(=O)O*` (repeat unit): 33.00 °C; for `*CCCCOc1ccc(OC(=O)c2ccc(C(=O)Oc3ccc(O*)cc3)c(C(=O)OCC=C)c2)cc1` (repeat unit): 56.00 °C.
Compound `*CCN(CCOC(=O)NC(C)(C)c1cccc(C(C)(C)NC(=O)O*)c1)c1ccc(/N=N/c2ccc([N+](=O)[O-])cc2)cc1` (repeat unit) came in with a glass transition temperature of 103.00 °C.
For `*CCN(CCOC(=O)NCC1(C)CC(NC(=O)O*)CC(C)(C)C1)c1ccc(C=C(C#N)C#N)cc1` (repeat unit) the value was 145.00 °C; for `*CCN(CCOC(=O)Nc1ccc(C)c(NC(=O)O*)c1)c1ccc(/C=C/c2ccc([N+](=O)[O-])cc2)cc1` (repeat unit), 121.00 °C.
The same measure for `*CCN(CCOC(=O)Nc1ccc(C)c(NC(=O)O*)c1)c1ccc(/C=C2/NC(=O)NC2=O)cc1` (repeat unit): 178.00 °C; for `*CCN(CCOC(=O)Nc1ccc(C)c(NC(=O)O*)c1)c1ccc(/N=N/c2ccc(-c3nc4cc([N+](=O)[O-])ccc4[nH]3)cc2)cc1` (repeat unit): 188.00 °C; for `*CCN(CCOC(=O)Nc1ccc(C)c(NC(=O)O*)c1)c1ccc(/N=N/c2ccc(-c3nc4ccccc4o3)cc2)cc1` (repeat unit): 152.00 °C.
The same measure for `*CCOC(=O)Nc1ccc(C)c(NC(=O)OCCOc2cc([N+](=O)[O-])ccc2/N=N/c2cn(*)c3ccc(-c4ccccc4)cc23)c1` (repeat unit): 165.00 °C.
`*NC(CCC(=O)OCc1ccc(C(F)(F)F)cc1)C(*)=O` (repeat unit): the glass transition temperature was 26.57 °C.
The compound `*NC(CCC(=O)OCc1ccc(F)cc1)C(*)=O` (repeat unit) returned a glass transition temperature of 46.90 °C.
Regarding `*NC(CCC(=O)OCc1ccc([N+](=O)[O-])cc1)C(*)=O` (repeat unit), the glass transition temperature turned out to be 53.2 °C.
In turn, `*Nc1cc(NC(=O)c2cc(OCCN(C)c3ccc(C#N)cc3)cc(C(*)=O)c2)cc(C(=O)OCCN(C)c2ccc(S(=O)(=O)C(F)(F)C(F)(F)C(F)(F)C(F)(F)C(F)(F)C(F)(F)C(F)(F)C(F)(F)F)cc2)c1` (repeat unit) showed a glass transition temperature of 165.00 °C.
For `*Nc1ccc(Cc2ccc(NC(=O)NCCCCCCCCCCNC(*)=O)cc2)cc1` (repeat unit) the value was 46.00 °C; for `*Nc1ccc(Cc2ccc(NC(=O)NCCCCCCCCNC(*)=O)cc2)cc1` (repeat unit), 50.00 °C.
The compound `*Nc1ccc(NC(=O)c2ccc(NC(=O)CCCCCCCCC(=O)Nc3ccc(C(*)=O)cc3)cc2)cc1C(=O)OCCCCCCCCCCCCCCCC` (repeat unit) showed a glass transition temperature of 220.00 °C.
The same measure for `*Nc1ccc(NC(=O)c2ccc(NC(=O)CCCCCCCCC(=O)Nc3ccc(C(*)=O)cc3)cc2)cc1C(=O)OCCCCCCCCCCCCCCCCCC` (repeat unit): 280.00 °C; for `*Nc1ccc(NC(=O)c2ccc(NC(=O)CCCCCCCCCCC(=O)Nc3ccc(C(*)=O)cc3)cc2)cc1C(=O)OCCCCCCCCCCCC` (repeat unit): 205.50 °C.
For `*Nc1ccc(NC(=O)c2ccc(NC(=O)CCCCCCCCCCC(=O)Nc3ccc(C(*)=O)cc3)cc2)cc1C(=O)OCCCCCCCCCCCCCCCC` (repeat unit) the value was 199.50 °C.
On to `*Nc1ccc(NC(=O)c2ccc(NC(=O)CCCCCCCCCCCCC(=O)Nc3ccc(C(*)=O)cc3)cc2)cc1C(=O)OCCCCCCCCCCCC` (repeat unit), for which the glass transition temperature is 199.50 °C.
The same measure for `*Nc1cccc(NC(=O)c2ccc(C(=O)Nc3ccc(C(=O)NC(*)=S)cc3)cc2)c1` (repeat unit): 273.00 °C.
For `*Nc1ccccc1CCc1ccc(NC(=O)NCCCCCCNC(*)=O)cc1` (repeat unit) the value was 150.00 °C.
The same measure for `*OC(COC(=O)NCCCCCCNC(*)=O)c1ccco1` (repeat unit): 17.00 °C.
`*Oc1ccc(-c2ccc(Oc3ccc(C(=O)c4c(C(=O)c5ccc(*)cc5)c(-c5ccc(F)cc5)c(-c5ccc(F)cc5)c(-c5ccc(F)cc5)c4-c4ccc(F)cc4)cc3)cc2)cc1` (repeat unit) gave a glass transition temperature of 275.00 °C.
Compound `*Oc1ccc(-c2ccc(Oc3ccc(C(=O)c4c(C(=O)c5ccc(*)cc5)c(-c5ccccc5)c(-c5ccc6ccccc6c5)c(-c5ccc6ccccc6c5)c4-c4ccccc4)cc3)cc2)cc1` (repeat unit) had a glass transition temperature of 290.00 °C.
For `*Oc1ccc(/N=C/C=N/c2ccc(OC(=O)NC3CC(C)(C)CC(C)(CNC(*)=O)C3)cc2)cc1` (repeat unit) the value was 62.00 °C; for `*Oc1ccc(/N=C/C=N/c2ccc(OC(=O)Nc3cc(NC(*)=O)ccc3C)cc2)cc1` (repeat unit), 76.00 °C.
For `*Oc1ccc(C(=O)Nc2cc(NC(=O)c3ccc(*)cc3)cc(C(=O)OCCOC(=O)/C=C/c3ccc(N(C)C)cc3)c2)cc1` (repeat unit) the value was 182.00 °C; for `*Oc1ccc(C(c2ccc(Oc3ccc(C(=O)c4c(C(=O)c5ccc(*)cc5)c(-c5ccccc5)c(-c5ccc6ccccc6c5)c(-c5ccc6ccccc6c5)c4-c4ccccc4)cc3)cc2)(C(F)(F)F)C(F)(F)F)cc1` (repeat unit), 275.00 °C; for `*Oc1ccc(OC(=O)c2ccc(C(*)=O)cc2Sc2ccc(C)cc2)cc1` (repeat unit), 134.00 °C.
The same measure for `*c1ccc(C(=O)NCCCCCCCCCCNC(=O)c2ccc(-c3nc4ccccc4nc3*)cc2)cc1` (repeat unit): 166.00 °C.
